Results: patent US11229207B2, “Topical avermectin formulations and methods for elimination and prophylaxis of susceptible and treatment resistant strains of head lice” (priority 2006, dated 2022)
Values joined by “and” are separate entries in the source; they are usually repeats but may differ in a detail not shown here. Identical values can stand only once. Like-named read-outs stand apart in the source and are kept apart here.

Legend:
head lice [1] = conditions: cited from earlier work
SF-HL strain = conditions: Moon et al. 2003; cited from earlier work
head lice [2] = conditions: cited from earlier work; remark: listed apart in the source
[3] = tested on: SF-HL strain of permethrin-resistant human head lice; assay: Hair tuft mortality bioassay, permethrin-resistant SF-HL lice; type: in vivo, Pediculus humanus capitis; design: LT50 (lethal time to 50% mortality): unit not given beside the values; conditions: 10 minute exposure
Source text: The SF-HL strain of permethrin-resistant human head lice (Pediculus humanus capitis, Phthiraptera:Pediculidae) is collected from infested children in Plantation and Homestead, Fla. and is maintained on an in vitro feeding system at the University of Massachusetts at Amherst, Mass. as described by Yoon et al. (2006). Lice are maintained without a human host on the in vitro rearing system from about 24 to about 36 generations. Permethrin-resistant SF-HL are selected periodically using 1% permethrin-treated filter papers (Yoon et al. 2006). Filter papers (35 mm diameter, Whatman No. 1) are immersed into 1% permethrin dissolved in acetone (w/v) for 10 seconds and is air dried in a dark fumehood from about 20 to about 30 minutes. Mixed developmental stages (first instars to adult) are placed on the treated filter paper and exposed for about 5 hours. Surviving lice are transferred back into the feeding system. The SF-HL strain are susceptible to Ovide® (0.5% malathion), but resistant to Nix® (1% permethim) and cross-resistant to DDT treatments. (Moon et al. 2003).
Mortality bioassays are performed to compare lethal time to 50% mortality values (LT50) between the ivermectin formulations, Nix®, and Ovide®. Experimental lice are newly hatched first instars (less than 24 hours old). The lice are randomly taken from the in vitro rearing system, where the lice take an overnight blood meal. Lice (about 30 lice/treatment) are placed on an individual hair tuft (about 300 strands, about 4 cm in length) using sterile forceps, and the treatment is gently rubbed into the hair until saturation occurs.
After a 10 minute exposure period, the hair tuft with lice are washed sequentially in three separate water baths, containing about 10 ml of ddH2O for about 5 seconds each. The washed hair tuft with lice is blotted onto stacks of filter paper and air dried for about 5 minutes. Any lice dislodged during treatment or washing are placed back onto the treated hair tuft. After drying, the treated hair tuft with lice is examined under a dissecting microscope and the number of dead lice is recorded.
A louse is considered dead if it can not right itself when inverted and when its legs have ceased all movements when probed. Treated hair tufts with lice are then placed onto the feeding membrane in the in vitro rearing system and are maintained at 31° C. and 75% humidity. The numbers of dead lice are reassessed at 10 minute intervals until a greater than 90% mortality is achieved. The timing for mortality begins immediately following the 10 minute exposure period. Because of this, mortality is not assessed during the washing and drying intervals (about 5 minutes). Log time versus logit percent mortality regression lines are generated to determine LT50 and LT95 values and maximum log-likelihood ratio tests are performed to test the equality (slope and intercept) of the regression lines (p<0.05, Polo PC, LeOra Software, 1987).
To determine whether ivermectin in formulation performs better than ivermectin alone, blood-fed lice are placed onto 0.5% (w/v) ivermectin formulation-treated hair tufts as described above. Blood-fed lice are also placed onto hair tufts that are treated with 0.5% ivermectin in acetone (acetone is allowed to volatilize in a fumehood for about 1 hour prior to transferring lice to the treated hair tuft), washed, and transferred to the in vitro rearing system as described above.

[4] = SF-HL lice, Ovide values are estimated times

22,23-dihydroavermectin B1a and B1b [ivermectin]
effect against head lice in humans (head lice [1]; single oral 200 μg/kg dose, n=26 (Glaziou et al. 1994)): effective | results against head lice infestation (head lice [1]; single oral dose of 100-200 μg/kg (Dunne et al. 1991)): Positive, but not absolute, results

Clc1ccc(C(c2ccc(Cl)cc2)C(Cl)(Cl)Cl)cc1 [DDT]
status of the SF-HL strain towards the treatment (SF-HL strain): cross-resistant

Cl[C@H]1[C@H](Cl)[C@@H](Cl)[C@@H](Cl)[C@H](Cl)[C@H]1Cl [lindane]
efficacy for treating head lice (head lice [2]; reports in other parts of the world): 61% and 93% | efficacy for treating head lice (head lice [2]; reports in the U.S.): 17%

ivermectin [0.5% (non-formulated)]
LT50 (lethal time to 50% mortality) [3, 4]: 221.8 | LT95 [3, 4]: 419.4 | times faster than Nix at the LT50 ([3]; SF-HL): 27.9 times | times faster than Nix at the LT95 ([3]; SF-HL): 51.5 times | times faster than ddH2O treatment at the LT50 ([3]; SF-HL): 96.7 times | times faster than ddH2O treatment at the LT95 ([3]; SF-HL): 103.0 times | times faster than placebo formulation at the LT50 ([3]; SF-HL): 31.2 times | times faster than placebo formulation at the LT95 ([3]; SF-HL): 82.4 times
